Measured values: ChEMBL document CHEMBL1201862, “PubChem BioAssay data set” (2004)
Activity calls are given as the source filed them.

Experiments:
SUMO-activating enzyme [1] = target: T1, SUMO-activating enzyme (Homo sapiens, UniProt Q9UBT2); assay: blockers of UBC9-mediated SUMO conjugation – biochemical, AlphaScreen, SUMOylation inhibitor project, confirmation (AID 2018); type: functional
SUMO-activating enzyme [2] = target: T1, SUMO-activating enzyme; assay: blockers of SAE1/SAE2–UBC9 SUMO transfer – biochemical, HTRF, uHTS, primary screen (AID 2006); type: protein-complex assay
[3] = CCR5-tropic HIV-1 fusion blockers – cell-based, CCR5-tropic Env, dose response (AID 2279); type: functional
[4] = target: G-protein coupled receptor 55 (Homo sapiens, UniProt Q9Y2T6); assay: inhibition of LPI-stimulated GPR55 beta-arrestin translocation – imaging, U2OS, beta-arrestin-GFP, LPI agonist, primary screen (AID 2013); type: functional;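 also: antagonist potency measured as reduced agonist-driven arrestin aggregation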
Bcl-2-related protein A1 = target: T2, Bcl-2-related protein A1 (Mus musculus, UniProt Q07440); type: functional;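 also: confirmatory dose–response counterscreen on Bfl-1, used to check hits from a UBC13 polyubiquitin inhibitor campaign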
T2 sequence (Q07440 whole entry): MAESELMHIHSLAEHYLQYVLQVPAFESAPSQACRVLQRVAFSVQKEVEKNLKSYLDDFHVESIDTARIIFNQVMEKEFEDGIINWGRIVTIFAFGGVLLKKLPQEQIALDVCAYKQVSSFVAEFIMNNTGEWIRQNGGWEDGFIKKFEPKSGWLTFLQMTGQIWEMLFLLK

[5] = target: T3, Ubiquitin-conjugating enzyme E2 N (Homo sapiens, UniProt P61088); type: functional
T3 sequence (P61088 whole entry): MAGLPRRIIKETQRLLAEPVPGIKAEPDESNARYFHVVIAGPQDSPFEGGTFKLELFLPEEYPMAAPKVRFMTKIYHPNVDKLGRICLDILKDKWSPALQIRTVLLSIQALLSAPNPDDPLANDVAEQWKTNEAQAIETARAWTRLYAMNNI

[6] = target: T3, Ubiquitin-conjugating enzyme E2 N; type: functional; remark: listed apart in the source
Cytochrome P450 2C9 = Cytochrome P450 2C9 (Homo sapiens, UniProt P11712); settings: Potency
Troponin, cardiac muscle = Troponin, cardiac muscle (Homo sapiens, UniProt P19429+P45379+P63316); assay: Fluorescence-based biochemical high throughput dose response assay for activators of the calcium sensitivity of cardiac Regulated Thin Filaments (RTF). [Related pubchem assays (depositor defined):AID493008, AID493018, AID504382, AID504383]; type: protein-complex assay
[7] = tested on: Streptococcus sp. 'group A'; assay: Streptococcus pyogenes SK(-)GAS viability under kanamycin – luminescence, BacTiterGlo, confirmation, counter-screen for streptokinase expression inhibitor project, dose response (AID 1900); type: functional, organism-based
Streptokinase A = target: T4, Streptokinase A (Streptococcus pyogenes serotype M1, UniProt P10520); assay: viability-normalized secreted streptokinase activity reduction – plasminogen activation absorbance, OD405, dose response (AID 1914); type: functional, Streptococcus pyogenes M1 GAS;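 also: secreted streptokinase activity via plasminogen activation per viability signal from cell pellet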
T4 sequence (P10520 whole entry): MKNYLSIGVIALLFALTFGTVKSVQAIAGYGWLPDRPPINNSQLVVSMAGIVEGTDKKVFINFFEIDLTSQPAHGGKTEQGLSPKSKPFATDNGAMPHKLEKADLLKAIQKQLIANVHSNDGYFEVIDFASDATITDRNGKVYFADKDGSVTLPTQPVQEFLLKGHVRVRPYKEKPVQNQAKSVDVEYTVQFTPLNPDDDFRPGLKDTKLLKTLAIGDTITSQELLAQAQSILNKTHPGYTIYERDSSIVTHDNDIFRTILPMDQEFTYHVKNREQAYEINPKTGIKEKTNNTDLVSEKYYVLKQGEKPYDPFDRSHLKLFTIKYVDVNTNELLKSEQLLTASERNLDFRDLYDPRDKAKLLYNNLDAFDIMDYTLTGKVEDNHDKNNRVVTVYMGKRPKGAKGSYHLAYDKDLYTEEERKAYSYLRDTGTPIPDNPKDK

Streptococcus = assay: GAS UMAA2166 growth inhibition – luminescence, BacTiterGlo, counter-screen for streptokinase expression inhibitor project, dose response (AID 1915); type: functional, organism-based;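 also: potency for reduction of bacterial viability or growth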

G-protein coupled receptor 55, sequence (Q9Y2T6 whole entry): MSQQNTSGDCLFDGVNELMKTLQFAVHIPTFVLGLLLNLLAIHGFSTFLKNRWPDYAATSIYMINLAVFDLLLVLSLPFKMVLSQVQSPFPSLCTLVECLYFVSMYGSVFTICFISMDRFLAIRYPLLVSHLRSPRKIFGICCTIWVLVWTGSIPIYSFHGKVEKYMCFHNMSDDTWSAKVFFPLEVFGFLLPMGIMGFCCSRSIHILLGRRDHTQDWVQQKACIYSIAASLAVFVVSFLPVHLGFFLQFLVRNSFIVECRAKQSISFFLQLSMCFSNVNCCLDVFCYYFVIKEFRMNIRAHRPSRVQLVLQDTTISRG
T1 sequence (Q9UBE0 whole entry): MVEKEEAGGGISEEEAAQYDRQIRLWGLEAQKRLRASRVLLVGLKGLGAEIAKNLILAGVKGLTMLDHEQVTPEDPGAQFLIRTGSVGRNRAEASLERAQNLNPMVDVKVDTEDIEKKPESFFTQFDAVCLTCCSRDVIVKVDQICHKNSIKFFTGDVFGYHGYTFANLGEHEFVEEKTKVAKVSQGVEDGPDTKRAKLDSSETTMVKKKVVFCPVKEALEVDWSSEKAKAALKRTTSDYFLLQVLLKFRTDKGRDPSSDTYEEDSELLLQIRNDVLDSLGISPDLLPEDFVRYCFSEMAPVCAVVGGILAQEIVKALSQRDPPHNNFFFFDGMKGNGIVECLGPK
T1 sequence (Q9UBT2 whole entry): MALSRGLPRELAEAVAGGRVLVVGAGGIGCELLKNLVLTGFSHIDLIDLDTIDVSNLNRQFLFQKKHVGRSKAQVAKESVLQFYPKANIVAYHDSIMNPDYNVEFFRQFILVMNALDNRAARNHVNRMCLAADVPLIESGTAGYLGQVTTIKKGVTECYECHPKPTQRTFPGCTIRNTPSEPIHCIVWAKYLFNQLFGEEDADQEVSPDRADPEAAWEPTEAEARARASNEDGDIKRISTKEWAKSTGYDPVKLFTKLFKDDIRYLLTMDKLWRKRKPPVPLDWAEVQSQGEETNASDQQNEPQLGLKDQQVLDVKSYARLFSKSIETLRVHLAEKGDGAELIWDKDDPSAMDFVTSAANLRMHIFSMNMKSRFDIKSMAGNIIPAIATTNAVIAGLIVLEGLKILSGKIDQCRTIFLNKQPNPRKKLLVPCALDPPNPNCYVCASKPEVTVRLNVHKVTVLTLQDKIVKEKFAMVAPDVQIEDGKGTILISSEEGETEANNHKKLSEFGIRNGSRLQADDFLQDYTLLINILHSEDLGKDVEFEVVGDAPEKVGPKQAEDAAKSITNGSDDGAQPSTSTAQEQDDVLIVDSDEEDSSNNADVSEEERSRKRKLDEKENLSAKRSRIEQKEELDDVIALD
Cytochrome P450 2C9, sequence (P11712 whole entry): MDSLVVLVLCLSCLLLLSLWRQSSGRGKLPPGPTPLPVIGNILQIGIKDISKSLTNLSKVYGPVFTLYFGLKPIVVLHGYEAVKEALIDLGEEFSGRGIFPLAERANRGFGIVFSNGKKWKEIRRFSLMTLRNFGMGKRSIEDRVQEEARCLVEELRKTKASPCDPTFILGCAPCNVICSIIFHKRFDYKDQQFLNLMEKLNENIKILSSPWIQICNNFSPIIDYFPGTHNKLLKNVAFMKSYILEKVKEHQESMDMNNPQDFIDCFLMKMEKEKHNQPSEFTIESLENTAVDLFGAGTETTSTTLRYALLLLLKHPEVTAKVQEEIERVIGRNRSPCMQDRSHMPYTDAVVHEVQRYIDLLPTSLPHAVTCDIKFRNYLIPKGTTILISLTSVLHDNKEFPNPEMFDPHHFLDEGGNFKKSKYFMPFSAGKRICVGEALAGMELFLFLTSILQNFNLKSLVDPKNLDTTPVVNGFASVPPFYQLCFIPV

CCOC(=O)C1=C(C)N=c2s/c(=C\c3ccc(OCC(=O)O)cc3)c(=O)n2C1c1ccc(OC(C)C)cc1 (stereo not given)
IC50 (SUMO-activating enzyme [1]): 10.1 µM (active)
IC50 (SUMO-activating enzyme [2]): 26 µM (active)
IC50 [3]: 35.2 µM (active)

CC12CNCC(C)(CN(C(c3ccccc3)c3ccccc3)C1)C2
IC50 [4]: 5.62 µM (active)

O=C(CCNC(=O)c1ccccc1Cl)Nc1nc2ccccc2s1
IC50 (Bcl-2-related protein A1): > 20 µM (inactive)
IC50 [5]: 6.15 µM (active)
IC50 [6]: 8.02 µM (active)

CC(C)C[C@@H](CC(=O)N[C@H](CC(=O)N[C@@H]1CCNC[C@H]1C(=O)N[C@H](CC(=O)N[C@@H](CCC(=O)O)CC(=O)O)Cc1c[nH]c2ccccc12)C(C)C)NC(=O)[C@@H]1CCCC[C@H]1N
AC50 (Cytochrome P450 2C9): 25.1 µM (inconclusive)

COc1cc(Br)c(-c2sc(Nc3ccccc3)n[n+]2-c2ccc(F)cc2)cc1OC
IC50 [4]: 11.9 µM (inactive)

O=C(/C=C/c1ccco1)NC(=S)Nc1ccccc1N1CCOCC1
IC50 [4]: 4.57 µM (active)

Cc1cc(/C=C2\SC(=S)N(C)C2=O)c(C)n1-c1ccccc1O
EC50 (Troponin, cardiac muscle): 4.96 µM (active)
EC50 [7]: 8.37 µM (active)
EC50 (Streptokinase A): 17.8 µM (active)
EC50 (Streptococcus): 16.1 µM (active)

CCN(CC)c1ccc(/C=c2\sc3nnc(-c4ccccc4Cl)n3c2=O)cc1
EC50 (Troponin, cardiac muscle): 0.191 µM (active)
